Several values for one entry are separate records, joined by “and”; a condition that tells them apart may be missing. Equal values may be shown once. Read-outs that look alike come from different tables or passages of the source.
Experiments:
[1] = system: SARS-CoV-2, isolate USA-WA1/2020; assay: microbe, parasite or virus in culture; type: cell-based; conditions: HeLa-ACE2 SARS-CoV-2 antiviral effect without P-gp inhibitor; for EC50: read-out: ec50; for EC90: read-out: ec90
[2] = Hepatic microsomal stability, MLM; type: in vitro ADME
[3] = In vitro rat hepatocyte stability; type: in vitro ADME
From the text: Supplement media-1.zip/Hepatocyte_Stability.csv, table | column: clint; t_half

in vitro = conditions: human, hela-ace2 cells, 50.0
5-HT2A (h) = target: T1, 5-HT2A (h) (Homo sapiens, UniProt P28223); assay: In vitro CEREP profiling, 5-HT2A (h) (agonist radioligand); type: binding; conditions: test compound concentration 10 uM
T1 construct: purchased Eurofins Cerep (SafetyScreen44), recognised from the panel format
T1 sequence (P28223 whole entry): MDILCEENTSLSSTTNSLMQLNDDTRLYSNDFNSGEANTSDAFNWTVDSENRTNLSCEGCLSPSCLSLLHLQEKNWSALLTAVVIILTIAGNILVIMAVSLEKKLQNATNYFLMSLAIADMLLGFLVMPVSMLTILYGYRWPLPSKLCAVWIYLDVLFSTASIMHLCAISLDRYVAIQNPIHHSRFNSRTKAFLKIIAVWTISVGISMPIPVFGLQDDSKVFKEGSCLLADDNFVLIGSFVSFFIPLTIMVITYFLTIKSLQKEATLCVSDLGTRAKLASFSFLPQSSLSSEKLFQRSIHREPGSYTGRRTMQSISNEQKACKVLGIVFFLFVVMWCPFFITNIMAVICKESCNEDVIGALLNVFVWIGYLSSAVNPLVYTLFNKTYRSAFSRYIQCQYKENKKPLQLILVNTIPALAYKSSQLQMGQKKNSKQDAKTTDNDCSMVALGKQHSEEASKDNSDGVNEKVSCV
From the text: (§1) Supplement media-1.zip/Safety_Panel_Profile.csv, table | column: perc_inhibition

Lck kinase (h) = target: T2, Lck kinase (h) (Homo sapiens, UniProt P06239); assay: In vitro CEREP profiling, Lck kinase (h); type: biochemical; conditions: test compound concentration 10 uM; Enzyme and Cell-based assays
T2 construct: purchased Eurofins Cerep (SafetyScreen44), recognised from the panel format
T2 sequence (P06239 whole entry): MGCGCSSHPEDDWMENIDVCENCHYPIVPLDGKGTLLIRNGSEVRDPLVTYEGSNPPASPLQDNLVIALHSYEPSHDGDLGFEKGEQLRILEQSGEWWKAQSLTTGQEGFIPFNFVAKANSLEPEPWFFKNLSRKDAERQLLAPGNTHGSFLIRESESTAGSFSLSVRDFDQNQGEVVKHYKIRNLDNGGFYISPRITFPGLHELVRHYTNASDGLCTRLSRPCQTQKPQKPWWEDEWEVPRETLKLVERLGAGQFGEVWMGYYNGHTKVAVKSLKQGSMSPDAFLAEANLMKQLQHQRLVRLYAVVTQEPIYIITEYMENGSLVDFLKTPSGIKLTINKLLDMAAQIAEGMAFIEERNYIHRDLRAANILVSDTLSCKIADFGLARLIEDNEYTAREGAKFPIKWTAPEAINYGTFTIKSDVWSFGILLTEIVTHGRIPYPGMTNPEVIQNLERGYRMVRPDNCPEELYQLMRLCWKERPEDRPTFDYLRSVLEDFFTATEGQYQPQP
From the text: as §1

CB2 (h) = target: T3, CB2 (h) (Homo sapiens, UniProt P34972); assay: In vitro CEREP profiling, CB2 (h) (agonist radioligand); type: binding; conditions: test compound 10 uM
T3 construct: purchased Eurofins Cerep (SafetyScreen44), recognised from the panel format
T3 sequence (P34972 whole entry): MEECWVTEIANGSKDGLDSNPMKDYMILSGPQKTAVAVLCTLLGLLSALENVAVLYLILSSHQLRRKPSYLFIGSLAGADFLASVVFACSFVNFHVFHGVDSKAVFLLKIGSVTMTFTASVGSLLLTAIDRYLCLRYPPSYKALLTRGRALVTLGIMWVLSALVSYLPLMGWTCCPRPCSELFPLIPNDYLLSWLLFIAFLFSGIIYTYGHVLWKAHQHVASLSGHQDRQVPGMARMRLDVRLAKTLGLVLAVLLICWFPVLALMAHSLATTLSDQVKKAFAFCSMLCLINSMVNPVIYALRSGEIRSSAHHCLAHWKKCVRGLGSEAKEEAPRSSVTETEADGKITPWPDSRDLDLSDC
From the text: as §1

[4] = target: T4, N neuronal alpha4beta2 (h) (Homo sapiens, UniProt P17787+P43681); assay: In vitro CEREP profiling, N neuronal alpha4beta2 (h) (agonist radioligand); type: binding; conditions: test compound concentration 10 uM
T4 construct: purchased Eurofins Cerep (SafetyScreen44), recognised from the panel format
T4 sequence (P43681 29-627 limits assumed): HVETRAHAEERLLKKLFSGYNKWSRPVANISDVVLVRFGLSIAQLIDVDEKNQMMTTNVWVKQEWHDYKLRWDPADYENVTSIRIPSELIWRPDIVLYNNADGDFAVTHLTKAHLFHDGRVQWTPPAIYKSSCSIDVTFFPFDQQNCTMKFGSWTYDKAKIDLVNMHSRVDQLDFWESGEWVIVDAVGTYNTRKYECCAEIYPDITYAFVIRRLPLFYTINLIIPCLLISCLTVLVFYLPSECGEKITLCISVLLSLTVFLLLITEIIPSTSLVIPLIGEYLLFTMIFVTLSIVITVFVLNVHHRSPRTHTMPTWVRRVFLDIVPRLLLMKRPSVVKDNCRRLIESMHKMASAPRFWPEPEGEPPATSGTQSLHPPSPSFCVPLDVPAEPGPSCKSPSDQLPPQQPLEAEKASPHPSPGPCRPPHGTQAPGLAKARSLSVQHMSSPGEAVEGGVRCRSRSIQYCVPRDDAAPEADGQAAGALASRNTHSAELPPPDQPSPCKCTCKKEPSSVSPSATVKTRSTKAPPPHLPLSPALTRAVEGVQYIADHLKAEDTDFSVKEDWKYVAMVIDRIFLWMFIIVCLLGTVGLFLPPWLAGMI
T4 sequence (P17787 26-502): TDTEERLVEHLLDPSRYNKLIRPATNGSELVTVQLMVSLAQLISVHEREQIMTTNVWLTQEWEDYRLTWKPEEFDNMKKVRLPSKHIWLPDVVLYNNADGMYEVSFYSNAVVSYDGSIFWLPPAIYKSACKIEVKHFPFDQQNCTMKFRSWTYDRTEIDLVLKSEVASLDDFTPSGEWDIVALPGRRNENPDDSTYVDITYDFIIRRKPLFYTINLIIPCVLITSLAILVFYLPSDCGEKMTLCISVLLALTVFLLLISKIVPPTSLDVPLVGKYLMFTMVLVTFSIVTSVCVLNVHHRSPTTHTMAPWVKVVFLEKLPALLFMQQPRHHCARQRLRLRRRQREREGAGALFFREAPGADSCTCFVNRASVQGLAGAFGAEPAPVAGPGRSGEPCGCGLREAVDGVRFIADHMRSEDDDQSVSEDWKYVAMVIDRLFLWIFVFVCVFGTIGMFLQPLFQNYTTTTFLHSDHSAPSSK
From the text: as §1

D1 (h) = target: T5, D1 (h) (Homo sapiens, UniProt P21728); assay: In vitro CEREP profiling, D1 (h) (antagonist radioligand); type: binding; conditions: test compound 10 uM
T5 construct: purchased Eurofins Cerep (SafetyScreen44), recognised from the panel format
T5 sequence (P21728 whole entry): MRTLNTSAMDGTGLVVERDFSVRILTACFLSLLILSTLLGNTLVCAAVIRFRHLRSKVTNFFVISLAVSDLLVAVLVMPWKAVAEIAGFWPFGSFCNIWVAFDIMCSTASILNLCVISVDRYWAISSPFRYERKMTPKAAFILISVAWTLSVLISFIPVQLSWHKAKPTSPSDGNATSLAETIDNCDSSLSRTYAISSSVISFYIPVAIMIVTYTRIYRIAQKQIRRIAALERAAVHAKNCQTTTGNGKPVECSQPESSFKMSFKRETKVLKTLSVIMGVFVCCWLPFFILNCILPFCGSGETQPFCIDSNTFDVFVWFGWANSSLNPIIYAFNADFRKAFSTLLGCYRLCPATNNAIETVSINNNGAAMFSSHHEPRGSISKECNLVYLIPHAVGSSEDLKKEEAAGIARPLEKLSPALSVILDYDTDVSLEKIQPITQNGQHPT
From the text: as §1

CYP = CYP inhibition; type: in vitro ADME; conditions: In vitro CYP inhibition pooled; for potency: potency class in words
From the text: Supplement media-1.zip/CYP_Inhibition.csv, table | column: ic50; potency

delta (DOP) (h) = target: T6, delta (DOP) (h) (Homo sapiens, UniProt P41143); assay: In vitro CEREP profiling, delta (DOP) (h) (agonist radioligand); type: binding; conditions: test compound concentration 10 uM
T6 construct: purchased Eurofins Cerep (SafetyScreen44), recognised from the panel format
T6 sequence (P41143 whole entry): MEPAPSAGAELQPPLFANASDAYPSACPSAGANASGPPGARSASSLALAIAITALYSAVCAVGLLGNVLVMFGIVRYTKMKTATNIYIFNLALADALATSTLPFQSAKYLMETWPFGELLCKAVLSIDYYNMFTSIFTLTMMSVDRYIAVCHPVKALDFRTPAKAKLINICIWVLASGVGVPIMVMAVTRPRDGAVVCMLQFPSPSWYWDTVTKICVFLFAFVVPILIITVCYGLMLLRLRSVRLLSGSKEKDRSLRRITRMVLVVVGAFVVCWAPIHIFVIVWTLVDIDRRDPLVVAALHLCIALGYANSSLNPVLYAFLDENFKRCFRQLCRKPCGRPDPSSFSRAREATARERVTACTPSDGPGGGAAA
From the text: as §1

PDE3A (h) = target: T7, PDE3A (h) (Homo sapiens, UniProt Q14432); assay: In vitro CEREP profiling, PDE3A (h); type: biochemical; conditions: test compound concentration 10 uM; Enzyme and Cell-based assays
T7 construct: purchased Eurofins Cerep (SafetyScreen44), recognised from the panel format
T7 sequence (Q14432 whole entry): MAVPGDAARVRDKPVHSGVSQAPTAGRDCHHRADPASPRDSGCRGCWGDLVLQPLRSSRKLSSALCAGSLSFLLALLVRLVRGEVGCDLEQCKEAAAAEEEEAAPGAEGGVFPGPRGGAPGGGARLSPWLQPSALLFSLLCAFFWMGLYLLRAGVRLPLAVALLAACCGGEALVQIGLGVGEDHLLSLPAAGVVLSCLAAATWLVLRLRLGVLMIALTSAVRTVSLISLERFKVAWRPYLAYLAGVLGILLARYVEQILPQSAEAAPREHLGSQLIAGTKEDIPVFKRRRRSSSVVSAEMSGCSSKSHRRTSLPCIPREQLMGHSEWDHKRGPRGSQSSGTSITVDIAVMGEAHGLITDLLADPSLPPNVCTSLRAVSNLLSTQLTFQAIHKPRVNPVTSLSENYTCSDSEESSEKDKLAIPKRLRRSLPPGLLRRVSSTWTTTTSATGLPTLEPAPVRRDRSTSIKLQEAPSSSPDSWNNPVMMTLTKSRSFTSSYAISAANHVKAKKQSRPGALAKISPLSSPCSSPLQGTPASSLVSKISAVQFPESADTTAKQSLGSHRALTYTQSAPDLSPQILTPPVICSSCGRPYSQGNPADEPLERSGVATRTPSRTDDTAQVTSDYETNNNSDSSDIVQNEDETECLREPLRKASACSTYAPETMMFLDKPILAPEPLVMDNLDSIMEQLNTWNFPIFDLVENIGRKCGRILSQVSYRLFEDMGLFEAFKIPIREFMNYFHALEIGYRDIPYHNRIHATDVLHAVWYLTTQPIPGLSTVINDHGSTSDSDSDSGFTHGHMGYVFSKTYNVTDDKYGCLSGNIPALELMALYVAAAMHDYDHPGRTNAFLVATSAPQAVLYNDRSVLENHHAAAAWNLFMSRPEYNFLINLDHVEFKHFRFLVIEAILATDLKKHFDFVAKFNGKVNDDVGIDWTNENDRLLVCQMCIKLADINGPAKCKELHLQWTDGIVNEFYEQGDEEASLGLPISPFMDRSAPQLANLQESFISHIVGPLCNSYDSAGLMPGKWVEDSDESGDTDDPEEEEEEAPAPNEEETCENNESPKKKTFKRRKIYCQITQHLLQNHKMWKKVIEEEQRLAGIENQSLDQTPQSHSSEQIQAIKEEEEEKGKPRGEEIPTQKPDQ
From the text: as §1

GR (h) = target: T8, GR (h) (Homo sapiens, UniProt P04150); assay: In vitro CEREP profiling, GR (h) (agonist radioligand); type: binding; conditions: test compound concentration 10 uM
T8 construct: purchased Eurofins Cerep (SafetyScreen44), recognised from the panel format
T8 sequence (P04150 1-777): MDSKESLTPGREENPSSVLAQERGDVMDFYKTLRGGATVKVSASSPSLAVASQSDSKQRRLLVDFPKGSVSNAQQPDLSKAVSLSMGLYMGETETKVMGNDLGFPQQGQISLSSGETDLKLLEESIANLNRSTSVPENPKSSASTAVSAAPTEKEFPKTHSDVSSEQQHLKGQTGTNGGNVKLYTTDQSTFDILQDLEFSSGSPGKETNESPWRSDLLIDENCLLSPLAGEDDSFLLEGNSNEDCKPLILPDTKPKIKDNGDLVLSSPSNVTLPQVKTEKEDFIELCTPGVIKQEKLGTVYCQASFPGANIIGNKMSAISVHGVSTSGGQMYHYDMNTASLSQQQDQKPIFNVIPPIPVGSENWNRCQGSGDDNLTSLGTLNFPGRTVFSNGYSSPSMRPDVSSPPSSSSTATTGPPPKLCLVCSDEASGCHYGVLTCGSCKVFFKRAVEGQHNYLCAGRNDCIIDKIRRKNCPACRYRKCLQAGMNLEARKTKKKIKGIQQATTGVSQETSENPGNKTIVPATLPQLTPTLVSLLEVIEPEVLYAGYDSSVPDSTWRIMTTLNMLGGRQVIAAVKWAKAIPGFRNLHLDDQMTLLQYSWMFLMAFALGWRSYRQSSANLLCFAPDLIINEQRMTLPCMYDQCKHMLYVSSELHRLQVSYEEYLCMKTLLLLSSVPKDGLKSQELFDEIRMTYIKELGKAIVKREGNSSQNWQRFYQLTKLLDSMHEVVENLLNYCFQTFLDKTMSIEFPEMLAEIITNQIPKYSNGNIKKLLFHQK
From the text: as §1

alpha2A (h) = target: T9, alpha2A (h) (Homo sapiens, UniProt P08913); assay: In vitro CEREP profiling, alpha2A (h) (antagonist radioligand); type: binding; conditions: test compound 10 uM
T9 construct: purchased Eurofins Cerep (SafetyScreen44), recognised from the panel format
T9 sequence (P08913 1-465): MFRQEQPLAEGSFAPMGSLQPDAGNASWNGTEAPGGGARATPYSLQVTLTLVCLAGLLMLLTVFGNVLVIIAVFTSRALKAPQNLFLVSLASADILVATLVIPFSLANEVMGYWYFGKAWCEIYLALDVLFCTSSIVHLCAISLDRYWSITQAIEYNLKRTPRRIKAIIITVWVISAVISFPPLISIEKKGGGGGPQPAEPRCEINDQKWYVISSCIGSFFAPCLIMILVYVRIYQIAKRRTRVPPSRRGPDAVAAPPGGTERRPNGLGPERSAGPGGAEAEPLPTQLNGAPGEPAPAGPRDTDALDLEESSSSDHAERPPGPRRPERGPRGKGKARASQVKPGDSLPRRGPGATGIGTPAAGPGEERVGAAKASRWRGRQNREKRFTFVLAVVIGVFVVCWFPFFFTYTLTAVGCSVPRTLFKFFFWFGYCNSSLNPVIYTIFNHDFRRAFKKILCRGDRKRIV
From the text: as §1

acetylcholinesterase (h) = target: T10, acetylcholinesterase (h) (Homo sapiens, UniProt P22303); assay: In vitro CEREP profiling, acetylcholinesterase (h); type: biochemical; conditions: test compound concentration 10 uM; Enzyme and Cell-based assays
T10 construct: purchased Eurofins Cerep (SafetyScreen44), recognised from the panel format
T10 sequence (P22303 32-614): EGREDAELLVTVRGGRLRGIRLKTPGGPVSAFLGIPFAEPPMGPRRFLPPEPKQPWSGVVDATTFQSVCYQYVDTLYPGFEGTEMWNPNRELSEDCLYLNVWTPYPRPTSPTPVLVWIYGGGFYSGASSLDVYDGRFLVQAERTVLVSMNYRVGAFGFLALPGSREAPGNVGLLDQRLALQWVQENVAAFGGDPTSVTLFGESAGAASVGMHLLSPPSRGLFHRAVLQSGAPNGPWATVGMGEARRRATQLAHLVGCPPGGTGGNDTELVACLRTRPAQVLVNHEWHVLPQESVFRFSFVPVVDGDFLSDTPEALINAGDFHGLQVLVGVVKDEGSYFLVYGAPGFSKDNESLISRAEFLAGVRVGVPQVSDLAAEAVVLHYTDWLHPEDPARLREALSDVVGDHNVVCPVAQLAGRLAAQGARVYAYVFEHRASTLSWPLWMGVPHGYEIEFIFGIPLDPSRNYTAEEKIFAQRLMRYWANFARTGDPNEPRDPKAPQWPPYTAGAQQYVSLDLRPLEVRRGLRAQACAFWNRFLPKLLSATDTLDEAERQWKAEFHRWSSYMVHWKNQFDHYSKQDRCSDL
From the text: as §1

[5] = maximum measured response of dose series
[6] = minimum measured response of dose series
[7] = Severe acute respiratory syndrome coronavirus 2
[8] = In vitro mouse liver microsomal stability
[9] = In vitro mouse liver microsomal stability; no cofactor
[10] = In vitro mouse liver microsomal stability, no cofactor

Compound | perc_max_measured [1, 5] | perc_min_measured [1, 6] | perc_remaining [2, 8] | t_half [2, 8] | perc_remaining_no_cofactor [2, 9] [%] | perc_remaining_no_cofactor [2, 10] [%] | EC50 [1] | EC90 [1] | clint [2, 8] | clint [3] [uL/min/1E6 cells] | t_half [3] [min] | CC50 at 24 h (in vitro) [µM] | perc_inhibition (% inhibition of the binding of a ligand specific for each target) (5-HT2A (h)) [%] | perc_inhibition: % inhibition of control enzyme activity, Lck kinase (h) (Lck kinase (h)) [%] | perc_inhibition (% inhibition of the binding of a ligand specific for each target) (CB2 (h)) [%] | perc_inhibition (% inhibition of the binding of a ligand specific for each target) [4] [%] | perc_inhibition (% inhibition of the binding of a ligand specific for each target) (D1 (h)) [%] | IC50 (CYP; isoform 1A2) [µM] | potency (CYP; isoform 1A2) | IC50 (CYP; isoform 2C9) [µM] | also measured
CC(C)C(Nc1ncnc2[nH]ccc12)c1ccc2c(c1)S(=O)(=O)CCC2 (stereo not shown) [ASAP-0008327] | 112.988% | 76.031% | 10.0% | 12.1 min | 103.0 | – | – | – | – | – | – | – | – | – | – | – | – | – | – | – | EC50 [1, 7]: > 50 µM; EC90 [1, 7]: > 50 µM; microsomal CLint ([2]; mouse, liver microsomes, In vitro mouse liver microsomal stability): 138 µL/min/mg
COc1ccc([C@@H](Cc2nnn[nH]2)NC(=O)c2ncnc3[nH]ccc23)cc1 [ASAP-0008340] | – | – | 96.0% | 4400.5 min | – | 93.0 | – | – | – | – | – | – | – | – | – | – | – | – | – | – | –
CC(C)[C@@H](Nc1ncnc2[nH]c(-c3cnn(C)c3C#N)cc12)c1ccc2c(n1)OCCO2 [ASAP-0008418] | 143.7% and 101.777% | 4.604% and 4.949% | 10.0% and 6.0% | 12.0 min and 9.9 min | 110.0 | 101.0 | 5.89 µM and 5.04 µM | 6.44 µM and 10.5 µM | 139.0 µL/min/mg and 169.0 µL/min/mg | – | – | – | – | – | – | – | – | – | – | – | –
C[C@H](C(=O)O)[C@@H](NC(=O)c1ncnc2[nH]ccc12)c1ccc(Br)cc1 [ASAP-0014722] | 104.611% | 71.809% | 111.226% | 379.672 min | – | 100.245 | > 20 µM | > 20 µM | 4.0 µL/min/mg | < 3.0 | > 231.0 | > 20 | 1 | 4 | -5 | 0 | -8 | > 50 | weak | 5.14 | potency (CYP; isoform 2C9): moderate; IC50 (CYP; isoform 2C19): > 50 µM; potency (CYP; isoform 2C19): weak; IC50 (CYP; isoform 2D6): > 50 µM; potency (CYP; isoform 2D6): weak; IC50 (CYP; isoform 3A4): > 50 µM; potency (CYP; isoform 3A4): weak; perc_min_measured ([1]; minimum measured response): 91.919%; perc_inhibition (% inhibition of the binding of a ligand specific for each target) (delta (DOP) (h)): -24%; perc_inhibition: % inhibition of control enzyme activity, PDE3A (h) (PDE3A (h)): 52%; perc_inhibition (% inhibition of the binding of a ligand specific for each target) (GR (h)): 3%; perc_inhibition (% inhibition of the binding of a ligand specific for each target) (alpha2A (h)): 3%; perc_inhibition: % inhibition of control enzyme activity, acetylcholinesterase (h) (acetylcholinesterase (h)): 12%
COc1ccc([C@H](Cc2nnn[nH]2)NC(=O)c2ncnc3[nH]ccc23)cc1 [ASAP-0015381] | 116.588% | 75.952% | 115.387% | 205.885 min | – | 100.411 | > 20 µM | > 20 µM | 7.0 µL/min/mg | < 3.0 | > 231.0 | > 20 | -4 | 4 | -11 | 4 | -18 | > 50 | weak | 31.2 | potency (CYP; isoform 2C9): weak; IC50 (CYP; isoform 2C19): > 50 µM; potency (CYP; isoform 2C19): weak; IC50 (CYP; isoform 2D6): > 50 µM; potency (CYP; isoform 2D6): weak; IC50 (CYP; isoform 3A4): 25.4 µM; potency (CYP; isoform 3A4): weak; perc_max_measured ([1]; maximum measured response): 102.013%; perc_min_measured ([1]; minimum measured response): 88.847%; perc_inhibition (% inhibition of the binding of a ligand specific for each target) (delta (DOP) (h)): -30%; perc_inhibition: % inhibition of control enzyme activity, PDE3A (h) (PDE3A (h)): 62%; perc_inhibition (% inhibition of the binding of a ligand specific for each target) (GR (h)): 1%; perc_inhibition (% inhibition of the binding of a ligand specific for each target) (alpha2A (h)): -1%; perc_inhibition: % inhibition of control enzyme activity, acetylcholinesterase (h) (acetylcholinesterase (h)): 11%

From publication doi:10.1101/2024.08.19.608619, “Discovery of potent SARS-CoV-2 nsp3 macrodomain inhibitors uncovers lack of translation to cellular antiviral response” (bioRxiv, 2024)
